Where two headings read alike, the source gives them in different places.
Assays:
[1] = Pharmacokinetic study in Sprague Dawley rats (oral gavage); assay type: in vivo; conditions: for concentration at 15 min / Cmax / AUC(0-t) / bioavailability / half-life: male, rat, plasma; for concentration at 15 min / Cmax: Sprague Dawley; for concentration at 15 min: oral, Etoposide C15min; for Cmax / AUC(0-t) / bioavailability / half-life: po; for Cmax: Etoposide Cmax; for AUC(0-t) / bioavailability / half-life: Sprague-Dawley; for AUC(0-t): Etoposide AUC0–6h; for bioavailability: Etoposide bioavailability; for half-life: Etoposide t½
Method: The study was conducted according to the European Convention for the Protection of Vertebrate Animals used for Experimental and other Scientific Purposes (ETS no. 123) and Belgian law controlling the experiments on animals (Royal Decree of 29 May 2013 for the protection of laboratory animals). Animals were allowed minimum five days to acclimatise upon arrival from the supplier, and they were housed in polysulphone cages (58 × 52 × 20 cm) in groups of six provided with wooden sticks for enrichment. Animals had free access to Safe 04 Maintenance Diet (Safe, Rosenberg, Germany) and water during acclimatisation and during the study.
Male Sprague Dawley rats (Charles River, Dortmund, Germany) weighing 293–358 g were randomly assigned into six groups of six animals. Formulations were prepared as clear solutions in 40% v/v ethanol–water and 10 mL/kg was administered to each animal by oral gavage. […] Plasma samples were taken by tail vein puncture with a needle followed by collection in 32–64 µL micro haematocrit tubes (Vitrex Medical, Herlev, Denmark) at times 15, 30, and 45 min and 1, 2, 3, 4, and 6 h. Samples were centrifuged, and plasma was transferred into 10 µL end-to-end pipettes (Vitrex Medical, Herlev, Denmark) and immediately frozen at −80 °C until bioanalysis. Immediately after the study, animals were euthanised according to the principles of euthanasia stated in the AVMA Guidelines for the Euthanasia of Animals (American Veterinary Medical Association, 2020). Plasma samples were analysed by a previously described qualified LC-MS/MS method.
Pharmacokinetic parameters were calculated individually for each animal subject and pooled for statistical analysis. The plasma concentration at 15 min (C15min) was reported as an average of the plasma concentration of the six animals in each group. […] Elimination rate constants (ke) were calculated by linear regression of the linear part of the ln(plasma concentration) versus time profiles, and plasma half-life (t½) was calculated from ke:(3) t½=ln (2)/ke

[2] = biological target: P-gp (Homo sapiens, UniProt P08183); test: Transcellular etoposide permeability across Caco-2 cell monolayers; conditions: Caco-2, spike method, 2.5 nM zosuquidar vs 2.5 nM zosuquidar + 0.2 µM polysorbate 20
[3] = cited from earlier work
[4] = group B: etoposide 20 mg/kg + zosuquidar 0.63 mg/kg + 1.0% v/v polysorbate 20 oral
[5] = group D: etoposide 20 mg/kg + zosuquidar 2.0 mg/kg + 5.0% v/v polysorbate 20 oral
[6] = group E: etoposide 20 mg/kg + zosuquidar 6.3 mg/kg + 5.0% v/v polysorbate 20 oral
[7] = group F: etoposide 20 mg/kg + zosuquidar 6.3 mg/kg + 10% v/v polysorbate 20 oral
[8] = 20 mg/kg, group A: etoposide 20 mg/kg + 1.0% v/v polysorbate 20 oral
[9] = 20 mg/kg, group C: etoposide 20 mg/kg + 5.0% v/v polysorbate 20 oral
[10] = 20 mg/kg, group B: etoposide 20 mg/kg + zosuquidar 0.63 mg/kg + 1.0% v/v polysorbate 20 oral
[11] = 20 mg/kg, group D: etoposide 20 mg/kg + zosuquidar 2.0 mg/kg + 5.0% v/v polysorbate 20 oral
[12] = 20 mg/kg, group E: etoposide 20 mg/kg + zosuquidar 6.3 mg/kg + 5.0% v/v polysorbate 20 oral
[13] = 20 mg/kg, group F: etoposide 20 mg/kg + zosuquidar 6.3 mg/kg + 10% v/v polysorbate 20 oral
[14] = group D*: etoposide 20 mg/kg oral alone
[15] = group F*: etoposide 20 mg/kg + zosuquidar 0.63 mg/kg oral
[16] = group G*: etoposide 20 mg/kg + zosuquidar 2.0 mg/kg oral
[17] = group H*: etoposide 20 mg/kg + zosuquidar 6.3 mg/kg oral

Chain of P-gp (P08183 whole entry): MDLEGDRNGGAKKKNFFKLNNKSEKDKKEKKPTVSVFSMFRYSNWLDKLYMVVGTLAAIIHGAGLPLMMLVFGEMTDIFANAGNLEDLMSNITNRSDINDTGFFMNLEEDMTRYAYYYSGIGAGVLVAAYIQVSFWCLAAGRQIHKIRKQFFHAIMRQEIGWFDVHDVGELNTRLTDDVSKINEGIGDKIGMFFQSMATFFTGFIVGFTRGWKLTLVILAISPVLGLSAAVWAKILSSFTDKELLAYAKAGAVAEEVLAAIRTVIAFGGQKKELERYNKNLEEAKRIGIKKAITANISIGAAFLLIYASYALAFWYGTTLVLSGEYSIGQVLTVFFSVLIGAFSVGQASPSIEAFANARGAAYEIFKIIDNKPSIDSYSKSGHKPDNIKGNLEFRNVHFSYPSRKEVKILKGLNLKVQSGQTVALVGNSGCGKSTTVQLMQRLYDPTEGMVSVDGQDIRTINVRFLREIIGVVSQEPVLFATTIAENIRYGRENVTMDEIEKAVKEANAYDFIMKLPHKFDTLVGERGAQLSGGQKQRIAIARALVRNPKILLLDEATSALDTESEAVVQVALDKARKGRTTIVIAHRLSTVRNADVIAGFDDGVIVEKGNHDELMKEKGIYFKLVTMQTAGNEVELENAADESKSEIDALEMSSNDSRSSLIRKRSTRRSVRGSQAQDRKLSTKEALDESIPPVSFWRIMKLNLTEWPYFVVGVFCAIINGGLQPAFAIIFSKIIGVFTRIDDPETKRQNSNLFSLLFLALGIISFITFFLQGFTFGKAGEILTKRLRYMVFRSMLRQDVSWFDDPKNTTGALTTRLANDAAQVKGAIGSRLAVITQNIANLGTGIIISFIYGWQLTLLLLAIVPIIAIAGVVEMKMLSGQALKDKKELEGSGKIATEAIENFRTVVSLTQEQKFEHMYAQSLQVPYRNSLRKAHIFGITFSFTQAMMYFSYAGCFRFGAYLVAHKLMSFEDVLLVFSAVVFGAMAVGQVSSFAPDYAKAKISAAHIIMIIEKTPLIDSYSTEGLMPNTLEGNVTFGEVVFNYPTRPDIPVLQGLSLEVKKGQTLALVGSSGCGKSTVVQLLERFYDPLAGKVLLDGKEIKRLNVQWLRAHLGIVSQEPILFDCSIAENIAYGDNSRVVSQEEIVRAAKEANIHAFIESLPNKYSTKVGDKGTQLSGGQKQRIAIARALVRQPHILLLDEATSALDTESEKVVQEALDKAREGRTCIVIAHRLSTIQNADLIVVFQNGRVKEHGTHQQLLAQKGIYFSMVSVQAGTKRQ

Which “Etoposide tmax, median [Q1; Q3]” value ([1]; group A: etoposide 20 mg/kg + 1.0% v/v polysorbate 20 oral) does the source give for COc1cc([C@@H]2c3cc4c(cc3[C@@H](O[C@@H]3O[C@@H]5CO[C@@H](C)O[C@H]5[C@H](O)[C@H]3O)[C@H]3COC(=O)[C@H]23)OCO4)cc(OC)c1O [etoposide] here?
The value was 30 [30;34] min.

What about the “Etoposide tmax, median [Q1; Q3]” value [1, 4] of the same compound?
Its value is 45 [30;49] min.

And the “Etoposide tmax, median [Q1; Q3]” value ([1]; group C: etoposide 20 mg/kg + 5.0% v/v polysorbate 20 oral)?
Its value is 30 [26;30] min.

What about the “Etoposide tmax, median [Q1; Q3]” value [1, 5] of the same compound?
The value was 38 [30;60] min.

What about the “Etoposide tmax, median [Q1; Q3]” value [1, 6] of the same compound?
The value was 45 [41;49] min.

And the “Etoposide tmax, median [Q1; Q3]” value [1, 7]?
The value was 45 [41;60] min.

What about the “Etoposide t½” value [1, 7] of the same compound?
Its value is 56.4 ± 2.2 min.

What about the concentration at 15 min [1, 8] of the same compound?
Its concentration at 15 min is 404 ± 58 ng/mL.

What about the concentration at 15 min [1, 9] of the same compound?
Its concentration at 15 min is 1130 ± 140 ng/mL.

And the concentration at 15 min [1, 4]?
Its concentration at 15 min is 1140 ± 120 ng/mL.

And the concentration at 15 min [1, 5]?
The concentration at 15 min was 1010 ± 100 ng/mL.

And the concentration at 15 min [1, 6]?
The concentration at 15 min was 923 ± 103 ng/mL.

And the concentration at 15 min [1, 7]?
Its concentration at 15 min is 579 ± 52 ng/mL.

And the Cmax [1, 8]?
The Cmax was 711 ± 86 ng/mL.

And the Cmax [1, 10]?
The Cmax was 1750 ± 160 ng/mL.

What about the Cmax [1, 9] of the same compound?
The Cmax was 1220 ± 140 ng/mL.

And the Cmax [1, 11]?
The Cmax was 1430 ± 180 ng/mL.

What about the Cmax [1, 12] of the same compound?
Its Cmax is 1300 ± 130 ng/mL.

What about the Cmax [1, 13] of the same compound?
Its Cmax is 1020 ± 70 ng/mL.

What about the AUC(0-t) [1, 8] of the same compound?
Its AUC(0-t) is 921 ± 84 ng·h/mL.

What about the AUC(0-t) [1, 10] of the same compound?
Its AUC(0-t) is 2610 ± 240 ng·h/mL.

What about the AUC(0-t) [1, 9] of the same compound?
Its AUC(0-t) is 1970 ± 240 ng·h/mL.

And the AUC(0-t) [1, 11]?
Its AUC(0-t) is 3080 ± 380 ng·h/mL.

And the AUC(0-t) [1, 12]?
Its AUC(0-t) is 2800 ± 200 ng·h/mL.

And the AUC(0-t) [1, 13]?
Its AUC(0-t) is 2310 ± 160 ng·h/mL.

What about the bioavailability [1, 8] of the same compound?
Its bioavailability is 5.35 ± 0.49%.

And the bioavailability [1, 10]?
Its bioavailability is 15.2 ± 1.4%.

What about the bioavailability [1, 9] of the same compound?
Its bioavailability is 11.5 ± 1.4%.

And the bioavailability [1, 11]?
Its bioavailability is 17.9 ± 2.2%.

What about the bioavailability [1, 12] of the same compound?
The bioavailability was 16.3 ± 1.2%.

What about the bioavailability [1, 13] of the same compound?
Its bioavailability is 13.4 ± 1%.

What about the half-life [1, 8] of the same compound?
Its half-life is 42.4 ± 2.4 min.

And the half-life [1, 10]?
Its half-life is 37.2 ± 1.2 min.

And the half-life [1, 9]?
Its half-life is 43.3 ± 2 min.

And the half-life [1, 11]?
Its half-life is 52.9 ± 2.8 min.

And the half-life [1, 12]?
The half-life was 54.7 ± 4.5 min.

And the “difference in mean etoposide Papp” value [2]?
The value was “no difference”.

And the “Etoposide AUC0–6h” value [3, 14]?
The value was 0.947 ± 0.156 µg·h/mL.

And the “Etoposide Cmax” value [3, 14]?
The value was 0.390 ± 0.084 µg/mL.

What about the Etoposide bioavailability [3, 14] of the same compound?
Its Etoposide bioavailability is 5.51 ± 0.91%.

What about the “Etoposide tmax, median [Q1; Q3]” value [3, 14] of the same compound?
Its value is 15 [15;30] min.

And the “Etoposide t½” value [3, 14]?
Its value is 80.8 ± 13.2 min.

And the “Etoposide AUC0–6h” value [3, 15]?
The value was 2.47 ± 0.44 µg·h/mL.

And the “Etoposide Cmax” value [3, 15]?
Its value is 1.59 ± 0.29 µg/mL.

And the Etoposide bioavailability [3, 15]?
Its Etoposide bioavailability is 14.4 ± 2.5%.

What about the “Etoposide tmax, median [Q1; Q3]” value [3, 15] of the same compound?
The value was 45 [15;45] min.

And the “Etoposide t½” value [3, 15]?
The value was 39.3 ± 3.0 min.

What about the “Etoposide AUC0–6h” value [3, 16] of the same compound?
Its value is 3.86 ± 0.50 µg·h/mL.

What about the “Etoposide Cmax” value [3, 16] of the same compound?
The value was 2.24 ± 0.54 µg/mL.

What about the Etoposide bioavailability [3, 16] of the same compound?
Its Etoposide bioavailability is 22.4 ± 2.9%.

And the “Etoposide tmax, median [Q1; Q3]” value [3, 16]?
The value was 38 [26;60] min.

What about the “Etoposide t½” value [3, 16] of the same compound?
Its value is 51.4 ± 2.4 min.

And the “Etoposide AUC0–6h” value [3, 17]?
The value was 4.27 ± 0.47 µg·h/mL.

What about the “Etoposide Cmax” value [3, 17] of the same compound?
The value was 2.11 ± 0.20 µg/mL.

What about the Etoposide bioavailability [3, 17] of the same compound?
Its Etoposide bioavailability is 24.8 ± 2.7%.

And the “Etoposide tmax, median [Q1; Q3]” value [3, 17]?
The value was 45 [15;60] min.

What about the “Etoposide t½” value [3, 17] of the same compound?
The value was 56.5 ± 4.8 min.

— article PMC9865188 (Pharmaceutics, 2023)
